{"source": "patent US8466172B2", "about": "“Stabilization of hypoxia inducible factor (HIF) alpha” (FibroGen, Inc., priority 2001, dated 2013)", "key": {"[1]": {"test_system": "Wistar rats, toxic-ischemic liver injury", "experiment": "Toxic-ischemic liver injury (CCl4)", "format": "in vivo, rat", "conditions": "9 weeks", "description": "The model of toxic-ischemic liver injury was described in Bickel et al. (supra). Briefly, male Wistar rats (212-320 g) either received 1 ml/kg carbon tetrachloride (CCl4) in olive oil (1:1) by gavage twice weekly for nine weeks (n=140) or received no treatment (controls; n=10). Additionally, a group of animals receiving CCl4 (n=60) also received compound P. The compound was administered by intraperitoneal injection twice daily at 60 mg compound/2 ml saline/kg body weight. After 9 weeks, the animals were sacrificed and the liver was weighed. Bilirubin, alanine transaminase, alkaline phosphatase, albumin, and total bile acids in serum were determined using commercially available kits."}, "[2]": {"test_system": "Wistar rats, toxic-ischemic liver injury", "conditions": "CCl4 + CPD, 9 weeks, 60 mg/kg intraperitoneal twice daily; cited from earlier work"}, "[3]": {"test_system": "vascular endothelial growth factor (VEGF)", "experiment": "VEGF expression in conditioned media, QUANTIKINE immunoassay", "format": "cell-based, human", "conditions": "HFF, 293A and Hep3B cells", "description": "When cell layers reached confluence, the media was replaced with OPTI-MEM media (Invitrogen Life Technologies, Carlsbad Calif.) and cell layers were incubated for approximately 24 hours in 20% O2, 5% CO2 at 37° C. Compound of the invention (one of compounds A to O) or DMSO (0.5 to 1%) was then added to existing medium, and incubation was continued overnight.\nConditioned media collected from cell cultures grown as in Example 1 was analyzed for vascular endothelial growth factor (VEGF) expression using a QUANTIKINE immunoassay (R&D Systems) according to the manufacturer's instructions. […] Values on the y-axis represent fold-induction relative to control and are reported on a log2 scale, such that a value of 1 represents 2-fold induction."}, "[4]": {"test_system": "vascular endothelial growth factor (VEGF) gene expression", "experiment": "VEGF gene expression in liver and kidney, quantitative PCR", "format": "in vivo", "conditions": "mouse, 200 mg/kg/day oral gavage, 2.5 days, four hours after final dose", "procedure": "Four hours after the final dose, animals were anesthetized with isoflurane and a blood sample was collected from the abdominal vein. […] The mice were then sacrificed and approximately 150 mg of liver and each kidney were isolated and stored in [sequence] solution (Ambion) at −20° C.\nRNA isolation was carried out using the following protocol. Tissue slices were cut into small pieces, 1.75 ml of RLT lysis buffer (RNEASY kit; Qiagen) was added, and the pieces were homogenized for about 20 seconds using a rotor-stator POLYTRON homogenizer (Kinematica, Inc., Cincinnati Ohio). […] The RNA was eluted into 80 μL of water and quantitated with RIBOGREEN reagent (Molecular Probes, Eugene Oreg.). […] The absorbance at 260 and 280 nm was measured to determine RNA purity and concentration.\ncDNA synthesis was performed using 1W random hexamer primers, 1 μg of total RNA, and OMNISCRIPT reverse transcriptase (Qiagen), according to the manufacturer's instructions. […] Analysis of the relative level of vascular endothelial growth factor (VEGF) gene expression was performed by quantitative PCR using a [sequence] […]\nThe relative level of 18S ribosomal RNA gene expression was measured as a control. Quantitative PCR was performed using a [sequence] […]"}, "aldolase": {"test_system": "aldolase", "conditions": "293A cells", "procedure": "Alternatively, human cells derived from adenovirus-transformed fetal kidney epithelium (293A) were cultured in DMEM, 5% FBS, 1% Penicillin-Streptomycin at 37° C. and 10% CO2. […] Culture supernatant was then removed, the plates were placed on ice, lysis buffer (LB)-1 was added and the cells were harvested by scraping. The scraped cells were collected and incubated for 15 minutes on ice followed by centrifugation at 3000 g for 5 minutes at 4° C. The supernatant, which represents the cytosolic fraction, was collected and cytosolic proteins were separated under denaturing and reducing conditions using SDS polyacrylamide gels that were loaded with equal amounts of protein per lane.\nGel electrophoresis was conducted at 150 V for 2 hours, and after SDS-PAGE the proteins were transferred to a PVDF membrane for 1.5 hours at 400 mA at 4° C. The membrane was then incubated in blocking buffer, washed once with T-TBS, and then anti-aldolase antibody diluted to working concentration in blocking buffer was added and the blots were incubated over night with gentle agitation at 4° C. The membrane was then washed 4 times with T-TBS, followed by incubation for one hour at room temperature with blocking buffer containing labeled secondary antibody. The membrane was then washed four times with T-TBS. […]"}, "[5]": {"test_system": "Wistar rats, myocardial infarction", "conditions": "one week after surgery", "description": "Male Wistar rats (100-110 g), aged 4-5 weeks, were kept on a regular diet and a 12 hour day-night cycle. […] Animals were treated for two days prior to surgery and for one week following surgery. […] Ligation of the left anterior descending coronary artery was performed in artificially ventilated animals after left thoracotomy. Animals were sacrificed one week after surgery and echocardiography was performed. Fractional shortening, end-diastolic diameters, and end-systolic diameters were determined in a blinded fashion."}}}
{"molecule": "COc1cccnc1C(=O)NCC(=O)O", "note": "[Compound P, [(3-methoxy-pyridine-2-carbonyl)-amino]-acetic acid]", "values": [{"measurement": "decrease in serum level of ALT in the treated group relative to the untreated group", "setting": "[1]", "result": 43, "unit": "%"}, {"measurement": "decrease in serum level of AP in the treated group relative to the untreated group", "setting": "[1]", "result": 65, "unit": "%"}, {"measurement": "decrease in serum level of BR in the treated group relative to the untreated group", "setting": "[1]", "result": 64, "unit": "%"}, {"measurement": "decrease in serum level of tBA in the treated group relative to the untreated group", "setting": "[1]", "result": 65, "unit": "%"}, {"measurement": "ALT (serum alanine transaminase)", "setting": "[2]", "result": "59.0 ± 29.5", "unit": "U/L"}, {"measurement": "AP (serum alkaline phosphatase)", "setting": "[2]", "result": "195 ± 72.7", "unit": "U/L"}, {"measurement": "BR (serum bilirubin)", "setting": "[2]", "result": "2.83 ± 2.21", "unit": "µmol/L"}, {"measurement": "BW (body weight)", "setting": "[2]", "result": "373 ± 38.9", "unit": "g"}, {"measurement": "tBA (serum total bile acids)", "setting": "[2]", "result": "40.8 ± 51.4", "unit": "µmol/L"}]}
{"molecule": "O=C(O)CNC(=O)c1nc(Cl)c2cc(OCc3ccccc3)ccc2c1O", "note": "[Compound L, N-((7-benzyloxy-1-chloro-4-hydroxy-isoquinoline-3-carbonyl)-amino)-acetic acid]", "values": [{"measurement": "VEGF expression in conditioned media (FIG. 4A)", "setting": "[3]", "result": "increase in VEGF expression"}]}
{"molecule": "COc1cc2cccnc2c2[nH]cc(C(=O)O)c(=O)c12", "note": "[Compound Q, 5-methoxy-4-oxo-1,4-dihydro-[1,10]phenanthroline-3-carboxylic acid]", "values": [{"measurement": "VEGF expression in conditioned media (FIG. 4A)", "setting": "[3]", "result": "increase in VEGF expression"}]}
{"molecule": "O=[N+]([O-])c1ccnc2c(O)cccc12", "note": "[Compound E, 4-nitro-quinolin-8-ol]", "values": [{"measurement": "VEGF expression in kidney (FIG. 6A)", "setting": "[4]", "result": "increased VEGF expression"}]}
{"molecule": "CC(C)Oc1ccc2nc(C(=O)NCC(=O)O)c(O)cc2c1", "note": "[Compound H, N-((3-hydroxy-6-isopropoxy-quinoline-2-carbonyl)-amino)-acetic acid]", "values": [{"measurement": "VEGF expression in conditioned media (FIG. 4A)", "setting": "[3]", "result": "increase in VEGF expression"}]}
{"molecule": "COc1ccc(CCN(CCC(=O)NO)S(=O)(=O)c2ccc(NC(=O)N(Cc3ccccc3)Cc3ccccc3)cc2)cc1", "note": "[Compound C, 3-{[4-(3,3-dibenzyl-ureido)-benzenesulfonyl]-[2-(4-methoxy-phenyl)-ethyl]-amino}-N-hydroxy-propionamide]", "values": [{"measurement": "VEGF expression in conditioned media (FIG. 4A)", "setting": "[3]", "result": "increase in VEGF expression"}]}
{"molecule": "O=C(O)CNC(=O)c1nc(Cl)c2ccccc2c1O", "note": "[Compound B, N-((1-chloro-4-hydroxy-isoquinoline-3-carbonyl)-amino)-acetic acid]", "values": [{"measurement": "expression of aldolase over time (FIG. 4B)", "setting": "aldolase", "result": "increased expression of aldolase"}, {"measurement": "increase in end-diastolic diameter over sham operated animals", "setting": "[5]", "result": 18, "unit": "%"}, {"measurement": "increase in left ventricular end-systolic diameter over sham operated animals", "setting": "[5]", "result": "no increase"}, {"measurement": "fractional shortening (FIG. 12A)", "setting": "[5]; 50 mg/kg oral gavage two times per day from two days prior to surgery", "result": 41, "unit": "%"}, {"measurement": "VEGF expression in conditioned media (FIG. 4A)", "setting": "[3]", "result": "increase in VEGF expression"}, {"measurement": "VEGF expression in kidney (FIG. 6A)", "setting": "[4]", "result": "increased VEGF expression"}]}
{"molecule": "COC(=O)CNC(=O)c1nc(Cl)c2cc(OCc3ccccc3)ccc2c1O", "note": "[Compound K, ((7-benzyloxy-1-chloro-4-hydroxy-isoquinoline-3-carbonyl)-amino)-acetic acid methyl ester]", "values": [{"measurement": "VEGF expression in conditioned media (FIG. 4A)", "setting": "[3]", "result": "increase in VEGF expression"}]}
